Assay results from ChEMBL document CHEMBL6096728, “Simultaneous Induction of Immunogenic Pyroptosis and PD-L1 Downregulation by One Single Photosensitizer for Synergistic Cancer Photoimmunotherapy” (J Med Chem, 2025).
The source made the active and inactive calls. The rule behind the calls is not given here.

How the values were obtained:
[1] = tested on: MDA-MB-231; assay: Photocytotoxicity in human MDA-MB-231 cells assessed as reduction in 3D multicellular spheroids diameter at 0.5 to 1 uM incubated for 24 hrs under light irradiation of 50 mW.cm/2 at 400 to 700nm measured after 10 mins in hypoxia condition; assay type: functional, cell-based; conditions: dose 0.5-1 µM
[2] = Toxicity in BALB/c mouse assessed as effect on heart at 25 mg/kg, iv measured after 14 days by H and E staining based analysis; assay type: organism-based; conditions: in vivo, 336 h, time 14 day
[3] = Toxicity in BALB/c mouse assessed as effect on WBC at 25 mg/kg, iv measured after 14 days; assay type: organism-based; conditions: in vivo, 336 h, time 14 day
[4] = tested on: MDA-MB-468; assay: Downregulation of PD-L1 expression level in human MDA-MB-468 cells at 0.1 to 0.5 uM incubated for 24 hrs under light irradiation of 20 mW.cm/2 at 400 to 700nm for 10 mins by Western blot analysis; assay type: functional, cell-based; conditions: dose 0.1-0.5 µM
[5] = tested on: 4T1; assay: Downregulation of PD-L1 expression level in mouse 4T1 cells at 0.1 to 0.5 uM incubated for 24 hrs under light irradiation of 20 mW.cm/2 at 400 to 700nm for 10 mins by Western blot analysis; assay type: functional, cell-based; conditions: dose 0.1-0.5 µM
[6] = tested on: MDA-MB-231; assay: Induction of pyroptosis in human MDA-MB-231 cells assessed as effect on caspase-1 expression level at 0.1 to 0.5 uM preincubated with compound for 12 hrs followed by light irradiation of 20 mW.cm/2 at 400 to 700nm for 10 mins by Western blot analysis; assay type: functional, cell-based; conditions: dose 0.1-0.5 µM
[7] = Drug uptake in mouse 4T1 cells assessed as increase in fluorescence intensity at 2.5 uM measured after 10 mins by flow cytometry analysis; assay type: ADME, cell-based; conditions: 4t1, 10 min
[8] = tested on: MDA-MB-231; assay: Induction of intracellular ROS generation in human MDA-MB-231 cells assessed as increase in fluorescence intensity at 0.1 uM preincubated for 2 hrs followed by compound washout further incubated with DCFH-DA probe for 30 mins under light irradiation of 20 mW.cm/2 at 400 to 700nm measured after 10 mins by flow cytometry analysis; assay type: functional, cell-based
[9] = Toxicity in BALB/c mouse assessed as effect on platelets at 25 mg/kg, iv measured after 14 days; assay type: organism-based; conditions: in vivo, 336 h, time 14 day
[10] = tested on: MDA-MB-231; assay: Induction of pyroptosis in human MDA-MB-231 cells assessed as formation of bubble-like protrusion on plasma membrane at 0.25 uM preincubated with compound for 12 hrs followed by light irradiation of 20 mW.cm/2 at 400 to 700nm for 10 mins by microscopy analysis; assay type: functional, cell-based
[11] = tested on: 4T1; assay: Induction of pyroptosis in mouse 4T1 cells assessed as appearance of large bubbles in cell at 0.5 uM preincubated with compound for 4 hrs followed by light irradiation of 20 mW.cm/2 at 400 to 700nm for 10 mins by confocal fluorescence microscopy analysis; assay type: functional, cell-based
[12] = tested on: MDA-MB-231; assay: Induction of pyroptosis in human MDA-MB-231 cells assessed as upregulation of caspase-3 expression level at 0.1 to 0.5 uM incubated with compound for 12 hrs under dark condition by Western blot analysis; assay type: functional, cell-based; conditions: dose 0.1-0.5 µM
[13] = tested on: MDA-MB-231; assay: Photocytotoxicity in human MDA-MB-231 cells assessed as reduction in 3D multicellular spheroids diameter at 0.5 to 1 uM incubated for 24 hrs under light irradiation of 50 mW.cm/2 at 400 to 700nm measured after 10 mins in normoxia condition; assay type: functional, cell-based; conditions: dose 0.5-1 µM
[14] = Toxicity in BALB/c mouse assessed as effect on lung at 25 mg/kg, iv measured after 14 days by H and E staining based analysis; assay type: organism-based; conditions: in vivo, 336 h, time 14 day
[15] = tested on: MDA-MB-231; assay: Downregulation of PD-L1 expression level in human MDA-MB-231 cells at 0.5 uM preincubated with MG-132 followed by compound addition and measured after 24 hrs under light irradiation of 20 mW.cm/2 at 400 to 700nm for 10 mins by Western blot analysis; assay type: functional, cell-based
[16] = tested on: MDA-MB-231; assay: Induction of pyroptosis in human MDA-MB-231 cells assessed as upregulation of GSDME-N expression level at 0.1 to 0.5 uM preincubated with compound for 12 hrs followed by light irradiation of 20 mW.cm/2 at 400 to 700nm for 10 mins by Western blot analysis; assay type: functional, cell-based; conditions: dose 0.1-0.5 µM
[17] = Toxicity in BALB/c mouse assessed as effect on WBC at 25 mg/kg, iv measured after 14 days under light irradiation of 300 mW.cm/2 at 400 to 700nm measured after 5 mins; assay type: organism-based; conditions: in vivo, 336 h, time 14 day
[18] = tested on: 4T1; assay: Antitumor immunity against mouse 4T1 cells implanted in BALB/c mouse model assessed as increase of CD8+ T cells in lymph node at 25 mg/kg, iv measured after 14 days under light irradiation of 300 mW.cm/2 at 400 to 700nm measured after 5 mins […]; assay type: functional, organism-based; conditions: time 14.0 day
[19] = tested on: 4T1; assay: Antitumor immunity against mouse 4T1 cells implanted in BALB/c mouse model assessed as increase of CD4+ T cells in lymph node at 25 mg/kg, iv measured after 14 days under light irradiation of 300 mW.cm/2 at 400 to 700nm measured after 5 mins […]; assay type: functional, organism-based; conditions: time 14.0 day
[20] = tested on: MDA-MB-231; assay: Induction of pyroptosis in human MDA-MB-231 cells assessed as increase in LDH release at 0.1 to 0.5 uM incubated for 12 hrs under light irradiation of 20 mW.cm/2 at 400 to 700nm for 10 mins; assay type: functional, cell-based; conditions: dose 0.1-0.5 µM
[21] = Phototoxicity against mouse 4T1 cells preincubated for 24 hrs followed by light irradiation of 20 mW.cm/2 at 400 to 700nm for 10 mins under hypoxia condition by CCK-8 method; assay type: functional, cell-based; conditions: 4T1, light or radiation study
[22] = tested on: MDA-MB-231; assay: Photocytotoxicity in human MDA-MB-231 cells assessed as cell viablity incubated for 24 hrs under light irradiation of 50 mW.cm/2 at 400 to 700nm measured after 10 mins in hypoxia condition by CCK-8 method; assay type: functional, cell-based; conditions: MDA-MB-231, light or radiation study
[23] = Phototoxicity against human MDA-MB-231 cells preincubated for 2 hrs followed by light irradiation of 20 mW.cm/2 at 400 at 700nm for 24 hrs by CCK-8 method; assay type: functional, cell-based; conditions: MDA-MB-231, light or radiation study
[24] = tested on: 4T1; assay: Antitumor immunity against mouse 4T1 cells implanted in BALB/c mouse model assessed as increase in proportion of tumor infiltrating CD8+ T cells at 25 mg/kg, iv measured after 14 days under light irradiation of 300 mW.cm/2 at 400 to 700nm measured after 5 mins by immunofluorescence analysis; assay type: functional, organism-based; conditions: time 14.0 day
[25] = tested on: MDA-MB-231; assay: Induction of pyroptosis in human MDA-MB-231 cells assessed as upregulation of GSDME-N expression level at 0.1 to 0.5 uM incubated with compound for 12 hrs under dark condition by Western blot analysis; assay type: functional, cell-based; conditions: dose 0.1-0.5 µM
[26] = tested on: MDA-MB-231; assay: Induction of cell death in human MDA-MB-231 cells assessed as increase in red fluorescence at 0.5 uM incubated for 24 hrs followed by light irradiation of 20 mW.cm/2 at 400 to 700nm for 10 mins by Calcein-AM/PI staining based analysis; assay type: functional
[27] = Drug uptake in mouse 4T1 cells assessed as increase in fluorescence intensity at 2.5 uM measured after 180 mins by flow cytometry analysis; assay type: ADME, cell-based; conditions: 4t1, 3 h
[28] = Toxicity in BALB/c mouse assessed as effect on platelets at 25 mg/kg, iv measured after 14 days under light irradiation of 300 mW.cm/2 at 400 to 700nm measured after 5 mins; assay type: organism-based; conditions: in vivo, 336 h, 0.7 µM, time 14 day

## O=c1cc2sc3cc(N4CCNCC4)ccc3nc-2c2ccccc12
[1]
  Activity: Active
[2]
  Activity: Non-toxic
[3]
  Activity: Non-toxic
[4]
  Activity: Active
[5]
  Activity: Active
[6]
  Activity: inactive
[7]
  Drug uptake: Active
[8]
  Activity: Active
[9]
  Activity: Non-toxic
[10]
  Activity: Active
[11]
  Activity: Active
[12]
  Activity: Active; Compound Showed Negligible Changes
[13]
  Activity: Active
[14]
  Activity: Non-toxic
[15]
  Activity: inactive
[16]
  Activity: Active
[17]
  Activity: Non-toxic
[18]
  Activity: Active
[19]
  Activity: Active
[20]
  Activity: Active
[21]
  IC50: 693 nM
[22]
  IC50: 983 nM
[23]
  IC50: 164 nM
[24]
  Activity: Active
[25]
  Activity: Active; Compound Showed Negligible Changes
[26]
  Activity: Active
[27]
  Drug uptake: Active
[28]
  Activity: Non-toxic
